Experiment [1] is described as follows: Effective concentrations of components of the formulation (tested in 200 uL of the formulation). The settings on record: for Actual concentrations that were effective in 200 uL, 1:20 dilution: concentration of the component within the formulation at 1:20 dilution. The method, then: Table 1 depicts the concentration of the biological, non-toxic peptide molecules included in the formulation of the present invention. The synergistic formulation of the present invention is prepared in various combinations of the constituents including protease inhibitor, 9 Arg, ion chelator, FDHIVY, Poly-Lys (L8), Anti-HAT, and vitamin B12. Each combination may include some of the above mentioned constituents depending on the use of the formulation. These concentrations of the components of the synergistic formulations of the present invention have been tested to be effective in 200 μL of the formulation.

In experiment [2] the test system is SARS-CoV-2. The experiment can be described thus: IC-50 plaque assay against SARS-CoV-2. It is filed as cell-based. The settings on record: highest concentration tested 25 μM, FIG. 3.
Method: The IC-50 value of Remdesivir was calculated by considering the top and baseline value 100 and 0 respectively.
The IC-50 of the test material was calculated by considering the top and baseline value 100 and 0 respectively.

Consider 3 compounds from patent US20230226136A1, “A SYNERGISTIC FORMULATION FOR MANAGEMENT OF RESPIRATORY PATHOGENS INCLUDING CORONAVIRUSES” (priority 2020, published 2023).

Regarding 9-L-Arginine-peptide [9 Arg], in experiment [1], the “Actual concentrations that were effective in 200 uL, 1:20 dilution” value worked out at 2 mM. For the same compound, the “Actual concentrations that were effective in 200 uL, 1:30 dilution” value in experiment [1] (concentration of the component within the formulation at 1:30 dilution) is listed as 1.3 mM.
Take `CCC(CC)COC(=O)[C@H](C)N[P@](=O)(OC[C@H]1O[C@@](C#N)(c2ccc3c(N)ncnn23)[C@H](O)[C@@H]1O)Oc1ccccc1` [Remdesivir]: the “reduction in viral load” value in experiment [2] was “up to 86.84%”.
“Phenylalanine-Aspartic acid-Histidine-Isoleucine-Valine-Tyrosine [FDHIVY]”: the “Actual concentrations that were effective in 200 uL, 1:20 dilution” value in experiment [1] came to 0.25 µg/mL.
